Measurements as given in patent US20080261812A1, “Pesticidal Mixtures” (BASF SE, priority 2005, published 2008).
Read-outs that look alike come from different tables or passages of the source.

Tested on: southern armyworm (Spodoptera eridania) 3rd-instar larvae
Assay: Laboratory bioassay with southern armyworm larvae on dip-treated lima bean leaves
Type: in vivo
Conditions: foliar, 120 h, read-out: % Mortality Observed
Excerpt: Serial dilutions of technical grade insecticides were made in 1:1 acetone:water diluent. Lima bean leaves were dipped into treatment solutions and allowed to air-dry. A single treated leaf was placed topside-up onto water-moistened filter paper in plastic Petri dishes, and then seven 3rd-instar southern armyworm (Spodoptera eridania) larvae were placed onto each leaf. Dishes were covered with a plastic lid to contain larvae. Each treatment was replicated 4 times (1 replicate=1 Petri dish). Following treatment application, infested Petri dishes were held in the laboratory under fluorescent lighting at 26° C. Numbers of live and dead larvae were counted in each dish at 5 days after treatment (DAT), and percent mortality was calculated for each treatment.
To determine if the insecticidal mixture was synergistic, Limpel's formula was used:
E=Expected % mortality of the mixture X=% mortality of compound X, as measured independently Y=% mortality of compound Y, as measured independently
Synergism was evident if the % observed mortality for the mixture was greater than the % expected mortality.

For `N#Cc1ccc(CC(=NNC(=O)Nc2ccc(OC(F)(F)F)cc2)c2cccc(C(F)(F)F)c2)cc1` [Metaflumizone, metaflumizone], the mortality at 0.6 ppm (single insecticide, dose concentration 0.6 ppm, leaf dip, 5 DAT, 3rd-instar larvae) was 0% and the mortality at 1 ppm (single insecticide, dose concentration 1.0 ppm, leaf dip, 5 DAT, 3rd-instar larvae) was 7%.
With `FC(F)(F)c1ccc(OCCCOc2c(Cl)cc(OCC=C(Cl)Cl)cc2Cl)nc1` [Pyridalyl, 2,6-dichloro-4-(3,3-dichloroallyloxy)phenyl 3-[5-(trifluoromethyl)-2-pyridyloxy]propyl ether] the mortality at 0.6 ppm was 10%.
